Experimental data from ChEMBL document CHEMBL3886681, “Rotenone derivatives and a use thereof” (2016).

Molecular target: T1, Pancreatic triacylglycerol lipase (Sus scrofa, UniProt P00591)
T1 sequence (P00591 whole entry): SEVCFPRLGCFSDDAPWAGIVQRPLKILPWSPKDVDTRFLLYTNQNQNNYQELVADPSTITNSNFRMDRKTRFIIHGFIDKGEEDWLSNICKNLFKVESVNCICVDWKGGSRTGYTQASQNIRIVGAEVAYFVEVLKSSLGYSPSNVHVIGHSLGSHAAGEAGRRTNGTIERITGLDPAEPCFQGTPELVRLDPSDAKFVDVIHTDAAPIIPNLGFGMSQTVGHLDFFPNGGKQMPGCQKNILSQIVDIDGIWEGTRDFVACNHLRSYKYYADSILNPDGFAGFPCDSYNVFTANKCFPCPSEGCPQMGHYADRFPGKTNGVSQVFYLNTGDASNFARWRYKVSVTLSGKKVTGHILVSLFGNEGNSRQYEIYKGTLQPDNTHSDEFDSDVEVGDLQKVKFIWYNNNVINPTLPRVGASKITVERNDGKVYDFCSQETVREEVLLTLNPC
Test: Inhibition Assay: Particularly, pancreatic lipase inhibiting activity was measured by the conventional method known to those in the art (Kim, J. H.; Kim, H. J.; Park, H. W.; Youn, S. H.; Choi, D. Y.; Shin, C. S. FEMS Microbiol. Lett. 2007, 276, 93.). To prepare the enzyme buffer, 30 mL (10 units) of pig pancreatic lipase solution (Sigma, St. Louis, Mo.) and 1 mM EDTA (pH 6.8) were mixed with 10 mM MOPS (morpholinepropanesulphonic acid), which was added to 850 mL of tris buffer (100 mM Tris-HCl and 5 mM CaCl2, pH 7.0). Then, 100 mL of the rotenoisin A or B of the present invention was mixed with the prepared enzyme buffer at the experimental concentration. […] 20 mL of substrate solution containing 20 mM p-nitrophenylbutyrate dissolved in dimethyl formaide was added to the enzyme buffer, followed by culture for 15 minutes at 37° C. that was the temperature adequate for enzyme reaction.

Q: For `C=C(C)[C@H]1Cc2c(ccc3c2OC2COc4cc(OC)c(OC)cc4C2[C@@]32CO2)O1` (stereo partly specified), which IC50 is on record?
A: 6.3 µM
